Experimental data published in US7261876B2, “Multivalent constructs for therapeutic and diagnostic applications” (Bracco International BV, priority 2002, dated 2007).
Entries after “also recorded” stand apart in the source; their conditions may differ. Each block holds one molecule with its values, some of them ahead of it. Positions of bridges follow the written chain, without caps; N, C: chain ends. Non-standard residues stand in square brackets, D forms with d. Residues, ends and D or L forms follow the SMILES beside them. Lys(ivDde) = CC(C)CC(NCCCC[C@H](N)C(=O)O)=C1C(=O)CC(C)(C)CC1=O

What was measured:
KDR = target: T1, KDR (Homo sapiens, UniProt P35968); test: VEGF-induced KDR receptor activation (phosphorylation) assay in HUVECs; type: cell-based; conditions: for inhibition of VEGF-induced activation of KDR: concentration not given
T1 construct: host or cells: HUVEC
Excerpt: Human umbilical vein endothelial cells (HUVECs) (Biowhittaker Cat No. CC-2519) were obtained frozen on dry ice and stored in liquid nitrogen until thawing. These cells were thawed, passaged, and maintained as described by the manufacturer in EGM-MV medium (Biowhittaker Cat No. CC-3125). Cells seeded into 100 mm dishes were allowed to become confluent, then cultured overnight in basal EBM medium lacking serum (Biowhittaker Cat No. CC-3121). The next morning, the medium in the dishes was replaced with 10 mL fresh EBM medium at 37° C. containing either no additive (negative control), 5 ng/mL VEGF (Calbiochem Cat No. 676472 or Peprotech Cat No. 100-20) (positive control), or 5 ng/mL VEGF plus the indicated concentration of the KDR-binding peptide (prepared as described above). In some cases, a neutralizing anti-KDR antibody (Cat No. AF357, R&D Systems) was used as a positive control inhibitor of activation. In such cases, the antibody was pre-incubated with the test cells for 30 min at 37° C. prior to the addition of fresh medium containing both VEGF and the antibody. After incubating the dishes 5 min in a 37° C. tissue culture incubator they were washed three times with ice-cold Dulbecco's phosphate buffered saline (D-PBS) containing calcium and magnesium and placed on ice without removing the last 10 mL of D-PBS. The first dish of a set was drained and 0.5 mL of Triton lysis buffer was added (20 mM Tris base pH 8.0, 137 mM NaCl, 10% glycerol, 1% Triton X-100, 2 mM EDTA (ethylenediaminetetraacetic acid), 1 mM PMSF (phenylmethylsulfonylfluoride), 1 mM sodium orthovanadate, 100 mM NaF, 50 mM sodium pyrophosphate, 10 μg/mL leupeptin, 10 μg/mL aprotinin). The cells were quickly scraped into the lysis buffer using a cell scraper (Falcon, Cat No. 353087), dispersed by pipeting up and down briefly, and the resulting lysate was transferred to the second drained dish of the pair. Another 0.5 mL of lysis buffer was used to rinse out the first dish then transferred to the second dish, which was then also scraped and dispersed. The pooled lysate from the two dishes was transferred to a 1.5 mL Eppindorf tube. The above procedure was repeated for each of the controls and test samples (KDR-binding peptides), one at a time. The lysates were stored on ice until all the samples had been processed. At this point samples were either stored at −70° C. or processed to the end of the assay without interruption.
The lysates, either freshly prepared or frozen and thawed, were precleared by adding 20 μL of protein A-sepharose beads (Sigma 3391, preswollen in D-PBS), washed three times with a large excess of D-PBS, reconstituted with 6 mL D-PBS to generate a 50% slurry) and rocked at 4° C. for 30 min. The beads were pelleted by centrifugation for 2 min in a Picofuge (Stratgene, Cat No. 400550) at 2000×g and the supernatants transferred to new 1.5 mL tubes. 20 μg of anti-Flk-1 antibody (Santa Cruz Biotechnology, Cat No. sc-504) was added to each tube, and the tubes were incubated overnight (16–18 h) at 4° C. on a rotator to immunoprecipitate KDR. The next day 40 μL of protein A-sepharose beads were added to the tubes, which were then incubated at 4° C. for 1 h on a rotator. The beads in each tube were subsequently washed three times by centrifuging for 2 min in a Picofuge, discarding the supernatant, and dispersing the beads in 1 mL freshly added TBST buffer (20 mM Tris base pH 7.5, 137 mM NaCl, and 0.1% Tween 20). After centrifuging and removing the liquid from the last wash, 40 μL of Laemmli SDS-PAGE sample buffer (Bio-Rad, Cat No. 161-0737) was added to each tube and the tubes were capped and boiled for 5 min. After cooling, the beads in each tube were pelleted by centrifuging and the supernatants containing the immunoprecipitated KDR were transferred to new tubes and used immediately or frozen and stored at −70° C. for later analysis.
Detection of phosphorylated KDR as well as total KDR in the immunoprecipitates was carried out by immunoblot analysis. […]

Soluble KDR receptor = target: T2, Soluble KDR receptor (Homo sapiens, UniProt P35968); test: Surface plasmon resonance (Biacore 3000) of P9/P10 heterodimers; type: binding
T2 construct: Soluble KDR receptor was cross-linked to the dextran surface of a CM5 sensor chip

[1] = target: T3, KDR expressed by transfected 293H cells (Homo sapiens, UniProt P35968); test: Competition with 125I-labeled VEGF for binding to KDR-transfected 293H cells
T3 construct: Both PCR products were digested with Not1 and ligated together to create the full-length receptor; V5-His (encoded by the vector); expressed in transfected cells; host or cells: 293H cells (Invitrogen cat. # 11631), transient lipofectamine 2000 transfection
T3 sequence (P35968 20-1356): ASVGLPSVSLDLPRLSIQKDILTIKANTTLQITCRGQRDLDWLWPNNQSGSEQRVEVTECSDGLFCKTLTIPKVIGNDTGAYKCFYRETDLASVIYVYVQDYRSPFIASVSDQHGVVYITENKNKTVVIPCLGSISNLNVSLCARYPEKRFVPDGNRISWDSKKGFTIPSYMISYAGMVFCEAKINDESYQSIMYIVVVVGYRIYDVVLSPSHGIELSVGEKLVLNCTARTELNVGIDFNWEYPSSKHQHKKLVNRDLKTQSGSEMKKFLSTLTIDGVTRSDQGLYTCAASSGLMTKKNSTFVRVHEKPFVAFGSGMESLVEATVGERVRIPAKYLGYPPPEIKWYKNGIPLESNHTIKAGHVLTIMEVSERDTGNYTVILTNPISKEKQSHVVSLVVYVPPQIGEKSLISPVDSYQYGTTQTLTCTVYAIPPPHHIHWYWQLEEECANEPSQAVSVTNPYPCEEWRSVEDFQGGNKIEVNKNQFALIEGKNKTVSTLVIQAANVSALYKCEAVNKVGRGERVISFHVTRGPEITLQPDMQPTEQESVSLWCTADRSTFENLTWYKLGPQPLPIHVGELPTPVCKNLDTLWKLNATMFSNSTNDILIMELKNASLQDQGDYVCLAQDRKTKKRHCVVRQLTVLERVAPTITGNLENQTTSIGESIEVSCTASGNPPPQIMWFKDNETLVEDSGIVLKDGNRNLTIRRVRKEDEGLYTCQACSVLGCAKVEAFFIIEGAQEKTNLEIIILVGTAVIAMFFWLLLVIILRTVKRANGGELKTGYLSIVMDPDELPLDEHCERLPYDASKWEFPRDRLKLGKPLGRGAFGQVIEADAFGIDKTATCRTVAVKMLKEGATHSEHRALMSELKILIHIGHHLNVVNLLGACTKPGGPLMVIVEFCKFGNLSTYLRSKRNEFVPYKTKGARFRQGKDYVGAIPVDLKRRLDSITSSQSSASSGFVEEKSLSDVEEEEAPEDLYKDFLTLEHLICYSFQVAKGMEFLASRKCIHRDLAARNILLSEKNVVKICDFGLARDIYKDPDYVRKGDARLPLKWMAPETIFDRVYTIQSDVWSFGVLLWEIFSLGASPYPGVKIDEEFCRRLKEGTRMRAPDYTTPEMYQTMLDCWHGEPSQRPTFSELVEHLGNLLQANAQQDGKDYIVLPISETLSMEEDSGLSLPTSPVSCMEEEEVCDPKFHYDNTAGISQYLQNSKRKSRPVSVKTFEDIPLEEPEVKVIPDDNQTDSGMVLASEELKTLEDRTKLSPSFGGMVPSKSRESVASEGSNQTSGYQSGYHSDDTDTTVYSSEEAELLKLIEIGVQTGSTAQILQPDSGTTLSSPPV
Description: Once prepared, the solutions were kept on ice until ready to use.
Cells were used 24 h after transfection, and to prepare the cells for the assay, they were washed 3 times with room temperature M199 medium and placed in the refrigerator. […] After incubating at 4° C. for 2 h, the plates were washed 5 times with cold binding buffer, gently blotted dry and checked under a microscope for cell loss. 100 μL of solubilizing solution (2% Triton X-100, 10% Glycerol, 0.1% BSA) was added to each well and the plates were incubated at room temperature for 30 minutes. The solubilizing solution in each well was mixed by pipeting up and down, and transferred to 1.2 mL tubes. Each well was washed twice with 100 μL of solubilizing solution and the washes were added to the corresponding 1.2 mL tube.
After washing the cells, the bound radioactivity was quantitated on a gamma counter.

T2 sequence (P35968 20-764 limits assumed): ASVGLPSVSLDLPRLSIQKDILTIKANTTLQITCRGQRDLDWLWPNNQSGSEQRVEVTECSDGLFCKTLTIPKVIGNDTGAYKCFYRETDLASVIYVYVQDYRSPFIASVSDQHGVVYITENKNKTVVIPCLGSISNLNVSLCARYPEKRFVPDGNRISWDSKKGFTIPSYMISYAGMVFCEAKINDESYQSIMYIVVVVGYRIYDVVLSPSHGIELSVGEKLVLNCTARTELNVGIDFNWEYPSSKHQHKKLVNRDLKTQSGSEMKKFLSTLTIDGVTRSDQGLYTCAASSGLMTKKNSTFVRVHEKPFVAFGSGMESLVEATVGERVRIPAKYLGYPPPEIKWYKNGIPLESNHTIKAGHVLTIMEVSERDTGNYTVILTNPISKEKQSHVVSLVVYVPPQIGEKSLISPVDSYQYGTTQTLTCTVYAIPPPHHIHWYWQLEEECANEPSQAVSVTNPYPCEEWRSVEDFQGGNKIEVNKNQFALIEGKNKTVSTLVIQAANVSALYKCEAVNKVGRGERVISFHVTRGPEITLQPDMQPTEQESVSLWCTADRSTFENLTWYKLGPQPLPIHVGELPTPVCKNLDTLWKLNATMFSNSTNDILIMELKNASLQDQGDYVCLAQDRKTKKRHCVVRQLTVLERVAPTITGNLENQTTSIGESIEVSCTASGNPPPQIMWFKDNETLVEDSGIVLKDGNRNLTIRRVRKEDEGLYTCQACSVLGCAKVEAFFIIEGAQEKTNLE
T1 sequence (P35968 20-1356): as the sequence (P35968 20-1356) above

Molecule: CC(=O)N[C@@H](C)C(=O)N[C@@H](CCC(N)=O)C(=O)N[C@@H](CCCNC(=N)N)C(=O)NCC(=O)N[C@@H](CC(=O)O)C(=O)N[C@@H](Cc1ccc(O)cc1)C(=O)N[C@@H](CCC(N)=O)C(=O)N[C@@H](CCC(=O)O)C(=O)N[C@@H](CCC(N)=O)C(=O)N[C@@H](Cc1ccc(O)cc1)C(=O)N[C@@H](Cc1c[nH]c2ccccc12)C(=O)N[C@@H](Cc1c[nH]cn1)C(=O)N[C@@H](CCC(N)=O)C(=O)N[C@@H](CCC(N)=O)C(=O)N[C@@H](CC(C)C)C(=O)N[C@H](C(=O)N[C@@H](CCC(=O)O)C(=O)N[C@@H](CCC(N)=O)C(=O)N[C@@H](CC(C)C)C(=O)N[C@@H](CCCCNC(CC(C)C)=C1C(=O)CC(C)(C)CC1=O)C(=O)N[C@@H](CC(C)C)C(=O)N[C@@H](CC(C)C)C(=O)NCC(=O)NCC(=O)NCC(=O)N[C@@H](CCCCN)C(N)=O)C(C)C [P19-E] (Ac-AQRGDYQEQYWHQQLVEQL[Lys(ivDde)]LLGGGK-NH2)
inhibition of KDR activation (KDR; 10 μM): did not produce significant inhibition of KDR activation

Molecule: CSCC[C@@H]1NC(=O)[C@H](CC(N)=O)NC(=O)[C@H](CO)NC(=O)[C@H](Cc2c[nH]c3ccccc23)NC(=O)CNC(=O)[C@@H](NC(=O)[C@H](CCC(=O)O)NC(=O)[C@H](Cc2c[nH]c3ccccc23)NC(=O)[C@H](CC(N)=O)NC(=O)[C@H](CC(=O)O)NC(=O)CNC(C)=O)CSSC[C@@H](C(=O)N[C@@H](C)C(=O)N[C@@H](CCCNC(=N)N)C(=O)N2CCC[C@H]2C(=O)N[C@@H](CC(=O)O)C(=O)N2CCC[C@H]2C(=O)NCC(=O)NCC(=O)NCC(=O)N[C@@H](CCCCN)C(N)=O)NC(=O)[C@H](Cc2ccccc2)NC(=O)[C@H](CCC(=O)O)NC(=O)[C@H](CCCCNC(CC(C)C)=C2C(=O)CC(C)(C)CC2=O)NC(=O)[C@H](CCC(N)=O)NC(=O)[C@H](Cc2ccccc2)NC1=O [P20-E] (Ac-GDNWECGWSNMFQ[Lys(ivDde)]EFCARPDPGGGK-NH2; disulfide 6-17)
inhibition of KDR activation (KDR; 10 μM): did not produce significant inhibition of KDR activation

Molecule: CSCC[C@H](NC(=O)[C@H](Cc1ccc(O)cc1)NC(=O)[C@H](Cc1c[nH]c2ccccc12)NC(=O)[C@@H]1CSSC[C@H](NC(=O)[C@@H]2CCCN2C(=O)CNC(=O)[C@@H]2CCCN2C(=O)CNC(=O)[C@H](C)NC(C)=O)C(=O)N[C@@H](CCCCNC(CC(C)C)=C2C(=O)CC(C)(C)CC2=O)C(=O)NCC(=O)N[C@@H](Cc2ccc(O)cc2)C(=O)N[C@@H](CCSC)C(=O)N2CCC[C@H]2C(=O)N[C@@H](Cc2c[nH]cn2)C(=O)N[C@@H](CCC(N)=O)C(=O)N1)C(=O)NCC(=O)N[C@H](C(=O)NCC(=O)NCC(=O)NCC(=O)N[C@@H](CCCCN)C(N)=O)[C@@H](C)O [P21-E] (Ac-AGPGPC[Lys(ivDde)]GYMPHQCWYMGTGGGK-NH2; disulfide 6-14)
inhibition of KDR activation (KDR; 10 μM): did not produce significant inhibition of KDR activation

increase in affinity over the individual monomer (Soluble KDR receptor): greater than 60 fold
kd,1 (Soluble KDR receptor): 0.00128 s⁻¹
kon (Soluble KDR receptor; pH 7.65, read-out: ka,1): 115000 M⁻¹ s⁻¹
Molecule: CC[C@H](C)[C@H](NC(=O)[C@H](Cc1c[nH]c2ccccc12)NC(=O)[C@H](Cc1ccc(O)cc1)NC(=O)[C@H](CC(=O)O)NC(=O)[C@H](CC(=O)O)NC(=O)CNC(=O)CNC(=O)[C@H](Cc1ccccc1)NC(=O)[C@H](CCCNC(=N)N)NC(=O)[C@@H]1CCCN1C(=O)[C@H](Cc1ccccc1)NC(=O)[C@H](C)NC(=O)[C@H](CCC(N)=O)NC(=O)[C@H](C)NC(C)=O)C(=O)N[C@@H](CCC(N)=O)C(=O)N[C@@H](CCC(N)=O)C(=O)N[C@@H](Cc1ccc(O)cc1)C(=O)N[C@@H](CC(C)C)C(=O)N[C@@H](CCCNC(=N)N)C(=O)N[C@@H](Cc1ccc(O)cc1)C(=O)N[C@H](C(=O)N[C@@H](CC(=O)O)C(=O)NCC(=O)NCC(=O)N[C@@H](CCCCNC(=O)CCOCCOCCOCCOCCNC(=O)CON=C(C)CCC(=O)NCCOCCOCCOCCOCCC(=O)NCCCC[C@H](NC(=O)CNC(=O)CNC(=O)[C@H](CC(=O)O)NC(=O)CNC(=O)[C@H](CC(=O)O)NC(=O)[C@H](CCC(=O)O)NC(=O)[C@H](CCC(=O)O)NC(=O)[C@H](Cc1c[nH]cn1)NC(=O)[C@H](Cc1ccc(O)cc1)NC(=O)[C@H](CC(C)C)NC(=O)[C@@H](NC(=O)[C@@H](NC(=O)[C@@H](NC(=O)[C@H](CCC(=O)O)NC(=O)[C@H](Cc1c[nH]c2ccccc12)NC(=O)[C@H](Cc1ccc(O)cc1)NC(=O)[C@H](C)NC(=O)[C@H](Cc1ccc(O)cc1)NC(=O)CNC(=O)[C@H](CCC(=O)O)NC(=O)[C@@H]1CCCN1C(=O)[C@H](CCC(=O)O)NC(=O)[C@H](CCC(N)=O)NC(=O)[C@H](C)NC(C)=O)C(C)C)[C@@H](C)CC)[C@@H](C)O)C(N)=O)C(N)=O)[C@@H](C)O [Tail-to-tail dimer]

Molecule: AGDSWCSTEYTYCEMIGT [P4]
competition with 125I-VEGF for binding to KDR-transfected cells [1]: did not compete significantly

Molecule: AQAFPRFGGDDYWIQQYLRYTDGG [P10]
inhibition of KDR activation (KDR; 10 μM): clearly able to partially block the VEGF-induced activation of KDR
kd,1 (Soluble KDR receptor): 0.45 s⁻¹

Molecule: AQEPEGYAYWEVITLYHEEDGDGG [P9]
kd,1 (Soluble KDR receptor): 0.00332 s⁻¹

Molecule: Ac-AGPKWC*EEDWYYC*MITGT-GGGK-NH2 [P5-D]
inhibition of VEGF-induced activation of KDR (KDR): inhibit activation of KDR

Molecule: Ac-AGPTWC*EDDWYYC*WLFGT-GGGK-(Biotin-JJ-)-NH2 [P12-XB]
percentage inhibition of 125I-labeled VEGF binding ([1]; 0.3 μM peptide): 80.96±3.8%
percentage inhibition of 125I-labeled VEGF binding ([1]; 30 μM peptide): 104.48±2.07%

Molecule: Ac-AQAFPRFGGDDYWIQQYLRYTDGGK-NH2 [P10-D]
inhibition of VEGF-induced activation of KDR (KDR): inhibit activation of KDR; also recorded: able to largely inhibit the VEGF-induced phosphorylation of KDR

inhibition at 10 µM (KDR; HUVEC, 10 μM, read-out: inhibition of VEGF-induced KDR phosphorylation): ≥ 50%
inhibition of VEGF-induced activation of KDR (KDR): inhibit activation of KDR
Molecule: Ac-AQGDYVYWEIIELTGATDHTPPGGGK-NH2 [P11-D]

Molecule: Ac-GDSRVC*WEDSWGGEVC*FRYDPGGGK-NH2 [P6-D]
inhibition of VEGF-induced activation of KDR (KDR): inhibit activation of KDR
